Read-outs that look alike come from different tables or passages of the source.
What was measured:
[1] = test system: radiation-induced lung fibrosis; experiment: Mouse radiation-induced lung fibrosis model: lung volume by HRCT; type: in vivo; conditions: 14.5 Gy irradiated mice, treated 8 weeks from week 16, measured at 24 weeks; FIG. 4
Procedure: The objective of this study was to compare the activity of pamrevlumab monotherapy to either pirfenidone or nintedanib alone, and to evaluate the potential for enhanced activity of the combined agents. […] In this study, mice received thoracic irradiation (RT), followed by the therapeutic administration of the agents at 16 weeks post-irradiation when lung remodeling was evident by HRCT. After 8 weeks of drug treatment, lung density and volume were assessed by HRCT, lung function was assessed by blood gas analysis, and mice were sacrificed for histologic and gene expression analysis. C57B1/6 mice were irradiated with 14.5 Gy photons; full thorax, single dose. Treatment with therapeutic agent(s) (pamrevlumab, pirfenidone, and/or nintedanib) was initiated 16 weeks post-irradiation and continued for 8 weeks. Pamrevlumab (FG) was given IP, BIW, at 40 mg/kg; pirfenidone (PF) was given PO in chow, QD, at 300 mg/kg; nintedanib (ND) was given PO in chow, QD, at 100 mg/kg. Treatment with each agent alone, with combinations of two, and with a triple combination were carried out. Controls included non-irradiated mice, mice that were irradiated and not treated, and mice that were irradiated and given human IgG. Endpoint measurements were taken at 24 weeks for HRCT (lung structure), blood gas analysis (lung function), histology and gene expression analysis. […]

[2] = test system: radiation-induced lung fibrosis; experiment: Mouse radiation-induced lung fibrosis model: lung function by blood gas analysis; type: in vivo; conditions: blood gas analysis at 24 weeks, compared to RT with no treatment; data not shown
Procedure: The objective of this study was to compare the activity of pamrevlumab monotherapy to either pirfenidone or nintedanib alone, and to evaluate the potential for enhanced activity of the combined agents. […] In this study, mice received thoracic irradiation (RT), followed by the therapeutic administration of the agents at 16 weeks post-irradiation when lung remodeling was evident by HRCT. After 8 weeks of drug treatment, lung density and volume were assessed by HRCT, lung function was assessed by blood gas analysis, and mice were sacrificed for histologic and gene expression analysis. C57B1/6 mice were irradiated with 14.5 Gy photons; full thorax, single dose. Treatment with therapeutic agent(s) (pamrevlumab, pirfenidone, and/or nintedanib) was initiated 16 weeks post-irradiation and continued for 8 weeks. Pamrevlumab (FG) was given IP, BIW, at 40 mg/kg; pirfenidone (PF) was given PO in chow, QD, at 300 mg/kg; nintedanib (ND) was given PO in chow, QD, at 100 mg/kg. Treatment with each agent alone, with combinations of two, and with a triple combination were carried out. Controls included non-irradiated mice, mice that were irradiated and not treated, and mice that were irradiated and given human IgG. […] The effect of the treatments on lung function was assessed by blood gas analysis (data not shown).

[3] = test system: fibrosis genes in irradiated lung; experiment: Microarray analysis of mRNA transcripts in irradiated lung; type: in vivo, mouse; conditions: for % Normalization of gene expression, Igfbp5 / % Normalization of gene expression, Abca3 / % Normalization of gene expression, Gdf2 / % Normalization of gene expression, Cx3cl1 / % Normalization of gene expression, Retnla / % Normalization of gene expression, Nt5e / % Normalization of gene expression, Plat / % Normalization of gene expression, Ccr2 / % Normalization of gene expression, Igfbp7 / % Normalization of gene expression, Cdkn2a / % Normalization of gene expression, Apln / % Normalization of gene expression, Wisp1: irradiated mouse lung, 24 weeks after RT, 8 weeks treatment; for % Normalization of gene expression, Igfbp5: RT fold change 0.3; for % Normalization of gene expression, Abca3 / % Normalization of gene expression, Gdf2: RT fold change 0.4; for % Normalization of gene expression, Cx3cl1: RT fold change 0.5; for % Normalization of gene expression, Retnla: RT fold change 2.0; for % Normalization of gene expression, Nt5e: RT fold change 2.1; for % Normalization of gene expression, Plat: RT fold change 2.2; for % Normalization of gene expression, Ccr2: RT fold change 2.4; for % Normalization of gene expression, Igfbp7: RT fold change 2.6; for % Normalization of gene expression, Cdkn2a: RT fold change 2.7; for % Normalization of gene expression, Apln: RT fold change 5.3; for expression of the Wisp 1 and Nt5e genes: monotherapy compared to RT treatment alone
Procedure: C57B1/6 mice were irradiated with 14.5 Gy photons; full thorax, single dose. Treatment with therapeutic agent(s) (pamrevlumab, pirfenidone, and/or nintedanib) was initiated 16 weeks post-irradiation and continued for 8 weeks. Pamrevlumab (FG) was given IP, BIW, at 40 mg/kg; pirfenidone (PF) was given PO in chow, QD, at 300 mg/kg; nintedanib (ND) was given PO in chow, QD, at 100 mg/kg. Treatment with each agent alone, with combinations of two, and with a triple combination were carried out. Controls included non-irradiated mice, mice that were irradiated and not treated, and mice that were irradiated and given human IgG. Endpoint measurements were taken at 24 weeks for HRCT (lung structure), blood gas analysis (lung function), histology and gene expression analysis.
Microarray analysis of mRNA transcripts of numerous genes at 24 weeks after RT were carried out by standard techniques to compare the expression profiles of irradiated and treated animals to irradiated animals that were not further treated. The results of the later group, RT (control), were used to normalize the expression data from the other groups. Briefly, RNA from 4-7 animals per condition (RT (control), RT+hIgG, RT+FG, RT+ND, RT+PF, RT+FG+ND, RT+FG+PF, RT+ND+PF, RT+FG+ND+PF). Affymetrix 430 2.0 data was used. RT induced changes (≥1.5×, p<0.05) were filtered for treatment dependent correction (>50% correction, p<0.05). 80 RT-induced and 68 RT-suppressed transcripts were normalized at least 50% by one or more treatments. The resulting list was dominated by pamrevlumab-dependent normalization. Functional analysis indicated pamrevlumab treatment preferentially normalized RT genes known to be regulated by TGFβ and TNF.

[4] = cited from earlier work
[5] = IPF patients; cited from earlier work
[6] = combined clinical studies of pirfenidone, cited from earlier work
IPF = conditions: Week 52, Phase 3 clinical study; cited from earlier work

SMILES: COC(=O)c1ccc2c(c1)NC(=O)/C2=C(\Nc1ccc(N(C)C(=O)CN2CCN(C)CC2)cc1)c1ccccc1 [nintedanib]
- radiation-induced lung volume decrease [1]: not statistically different
- O2 saturation [2]: normalized O2 saturation
- % Normalization of gene expression, Igfbp5 [3]: 54%
- % Normalization of gene expression, Abca3 [3]: −35%
- % Normalization of gene expression, Gdf2 [3]: 33%
- % Normalization of gene expression, Cx3cl1 [3]: −21%
- % Normalization of gene expression, Retnla [3]: −9%
- % Normalization of gene expression, Nt5e [3]: −22%
- % Normalization of gene expression, Plat [3]: −55%
- % Normalization of gene expression, Ccr2 [3]: 10%
- % Normalization of gene expression, Igfbp7 [3]: 10%
- % Normalization of gene expression, Cdkn2a [3]: 9%
- % Normalization of gene expression, Apln [3]: 6%
- % Normalization of gene expression, Wisp1 ([3]; RT fold change 6.9): −7%
- % Normalization of gene expression, Wisp1 ([3]; RT fold change 11.9): −18%
- expression of the Wisp 1 and Nt5e genes [3]: further induction of expression
- patients with arterial thromboembolic events ([4]; a clinical trial of nintedanib): 2.5%
- patients experiencing abdominal pain ([4]; clinical trials of nintedanib): 15%
- patients experiencing vomiting ([4]; clinical trials of nintedanib): 12%
- patients experiencing nausea ([4]; clinical trials of nintedanib, placebo 7%): 24%
- patients experiencing diarrhea ([4]; clinical trials of nintedanib, placebo 18%): 62%
- plasma half-life [5]: 9.5 h

SMILES: Cc1ccc(=O)n(-c2ccccc2)c1 [pirfenidone, 5-methyl-1-phenyl-2-(1H)-pyridone]
- % Normalization of gene expression, Igfbp5 [3]: 27%
- % Normalization of gene expression, Abca3 [3]: −20%
- % Normalization of gene expression, Gdf2 [3]: 10%
- % Normalization of gene expression, Cx3cl1 [3]: −8%
- % Normalization of gene expression, Retnla [3]: −7%
- % Normalization of gene expression, Nt5e [3]: −58%
- % Normalization of gene expression, Plat [3]: 0%
- % Normalization of gene expression, Ccr2 [3]: −20%
- % Normalization of gene expression, Igfbp7 [3]: −6%
- % Normalization of gene expression, Cdkn2a [3]: −37%
- % Normalization of gene expression, Apln [3]: 41%
- % Normalization of gene expression, Wisp1 ([3]; RT fold change 6.9): −21%
- % Normalization of gene expression, Wisp1 ([3]; RT fold change 11.9): −78%
- expression of the Wisp 1 and Nt5e genes [3]: further induction of expression
- patients experiencing abdominal pain [6]: 24%
- patients experiencing vomiting [6]: 13%
- patients with skin rash [6]: 30%
- patients experiencing nausea ([6]; placebo 16%): 36%
- patients experiencing diarrhea ([6]; placebo 20%): 26%
- mean UCSD-SOBQ score over placebo treated patients (IPF): no statistical significance

Reference: US20190127456A1, “METHODS OF TREATING IDIOPATHIC PULMONARY FIBROSIS” (FibroGen, Inc., priority 2017, published 2019)
